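The compound was tested at five concentrations on cells cultured in 96-well plates, with a 48-hour exposure period. GI50 = concentration required for 50% inhibition of growth. TGI is the concentration that stops growth completely.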
Legend:
Assay in all cases: NCI-60 cell line screen, 48 h
HT29 colon = test system: HT29 colon
T-47D breast = test system: T-47D breast
NCI-H23 lung = test system: NCI-H23 lung
SR leukemia = test system: SR leukemia
U251 CNS = test system: U251 CNS
PC-3 prostate = test system: PC-3 prostate
MALME-3M melanoma = test system: MALME-3M melanoma
MDA-MB-435 = test system: MDA-MB-435
SK-MEL-2 melanoma = test system: SK-MEL-2 melanoma
SN12C renal = test system: SN12C renal
OVCAR-3 ovarian = test system: OVCAR-3 ovarian
K-562 leukemia = test system: K-562 leukemia
SK-OV-3 ovarian = test system: SK-OV-3 ovarian
OVCAR-5 ovarian = test system: OVCAR-5 ovarian
CAKI-1 renal = test system: CAKI-1 renal
RPMI-8226 leukemia = test system: RPMI-8226 leukemia
RXF 393 renal = test system: RXF 393 renal
SNB-19 CNS = test system: SNB-19 CNS
UACC-62 melanoma = test system: UACC-62 melanoma
COLO 205 colon = test system: COLO 205 colon
MDA-MB-231 breast = test system: MDA-MB-231 breast
HCT-15 colon = test system: HCT-15 colon
UO-31 renal = test system: UO-31 renal
HS 578T breast = test system: HS 578T breast
SF-268 CNS = test system: SF-268 CNS
LOX IMVI melanoma = test system: LOX IMVI melanoma
MOLT-4 leukemia = test system: MOLT-4 leukemia
EKVX NSCLC = test system: EKVX NSCLC
HOP-62 NSCLC = test system: HOP-62 NSCLC
HL-60(TB) leukemia = test system: HL-60(TB) leukemia
UACC-257 melanoma = test system: UACC-257 melanoma
SK-MEL-28 melanoma = test system: SK-MEL-28 melanoma
CCRF-CEM leukemia = test system: CCRF-CEM leukemia
SF-295 CNS = test system: SF-295 CNS
TK-10 renal = test system: TK-10 renal
DU-145 prostate = test system: DU-145 prostate
HCC-2998 colon = test system: HCC-2998 colon
MCF7 breast = test system: MCF7 breast
OVCAR-4 ovarian = test system: OVCAR-4 ovarian
SW-620 colon = test system: SW-620 colon
IGROV1 ovarian = test system: IGROV1 ovarian
NCI-H460 lung = test system: NCI-H460 lung
SK-MEL-5 melanoma = test system: SK-MEL-5 melanoma
BT-549 breast = test system: BT-549 breast
NCI/ADR-RES ovarian = test system: NCI/ADR-RES ovarian
OVCAR-8 ovarian = test system: OVCAR-8 ovarian
SNB-75 CNS = test system: SNB-75 CNS
ACHN renal = test system: ACHN renal
KM12 colon = test system: KM12 colon
M14 melanoma = test system: M14 melanoma
HOP-92 NSCLC = test system: HOP-92 NSCLC
A549 NSCLC = test system: A549 NSCLC
NCI-H522 lung = test system: NCI-H522 lung
HCT-116 colon = test system: HCT-116 colon
A498 renal = test system: A498 renal
SF-539 CNS = test system: SF-539 CNS
NCI-H226 lung = test system: NCI-H226 lung
786-0 renal = test system: 786-0 renal

SMILES: COc1ccc2[nH]c(O)c(/C=c3/cc4c(c(-c5ccc(F)c(OC)c5)n3)=Nc3ccccc3-4)c2c1
- GI50 (HT29 colon): 2.03 µM
- TGI (HT29 colon): 4 µM
- GI50 (T-47D breast): 1.85 µM
- TGI (T-47D breast): 3.78 µM
- GI50 (NCI-H23 lung): 4.68 µM
- TGI (NCI-H23 lung): 38.2 µM
- GI50 (SR leukemia): 1.86 µM
- TGI (SR leukemia): 6.96 µM
- GI50 (U251 CNS): 1.7 µM
- TGI (U251 CNS): 3.21 µM
- GI50 (PC-3 prostate): 8.11 µM
- TGI (PC-3 prostate): 38.4 µM
- GI50 (MALME-3M melanoma): 2.03 µM
- TGI (MALME-3M melanoma): 3.92 µM
- GI50 (MDA-MB-435): 2.39 µM
- TGI (MDA-MB-435): 6.01 µM
- GI50 (SK-MEL-2 melanoma): 2.23 µM
- TGI (SK-MEL-2 melanoma): 5.41 µM
- GI50 (SN12C renal): 12.9 µM
- TGI (SN12C renal): 30.5 µM
- GI50 (OVCAR-3 ovarian): 1.99 µM
- TGI (OVCAR-3 ovarian): 3.58 µM
- GI50 (K-562 leukemia): 3.16 µM
- TGI (K-562 leukemia): 10.2 µM
- GI50 (SK-OV-3 ovarian): 11.3 µM
- TGI (SK-OV-3 ovarian): 26.2 µM
- GI50 (OVCAR-5 ovarian): 3.56 µM
- TGI (OVCAR-5 ovarian): 10.8 µM
- GI50 (CAKI-1 renal): 18.2 µM
- TGI (CAKI-1 renal): 36.9 µM
- GI50 (RPMI-8226 leukemia): 2.04 µM
- TGI (RPMI-8226 leukemia): 5.53 µM
- GI50 (RXF 393 renal): 1.53 µM
- TGI (RXF 393 renal): 3.01 µM
- GI50 (SNB-19 CNS): 2.85 µM
- TGI (SNB-19 CNS): 11.6 µM
- GI50 (UACC-62 melanoma): 1.7 µM
- TGI (UACC-62 melanoma): 3.16 µM
- GI50 (COLO 205 colon): 2.56 µM
- TGI (COLO 205 colon): 5.87 µM
- GI50 (MDA-MB-231 breast): 1.47 µM
- TGI (MDA-MB-231 breast): 3.14 µM
- GI50 (HCT-15 colon): 2.36 µM
- TGI (HCT-15 colon): 5.63 µM
- GI50 (UO-31 renal): 3.86 µM
- TGI (UO-31 renal): 18.8 µM
- GI50 (HS 578T breast): 1.87 µM
- TGI (HS 578T breast): 5.04 µM
- GI50 (SF-268 CNS): 3.68 µM
- TGI (SF-268 CNS): 18 µM
- GI50 (LOX IMVI melanoma): 1.72 µM
- TGI (LOX IMVI melanoma): 3.29 µM
- GI50 (MOLT-4 leukemia): 2.3 µM
- TGI (MOLT-4 leukemia): 5.68 µM
- GI50 (EKVX NSCLC): 8.71 µM
- TGI (EKVX NSCLC): 36 µM
- GI50 (HOP-62 NSCLC): 2.42 µM
- TGI (HOP-62 NSCLC): 4.88 µM
- GI50 (HL-60(TB) leukemia): 14.4 µM
- TGI (HL-60(TB) leukemia): 35.1 µM
- GI50 (UACC-257 melanoma): 2.81 µM
- TGI (UACC-257 melanoma): 8.86 µM
- GI50 (SK-MEL-28 melanoma): 2.06 µM
- TGI (SK-MEL-28 melanoma): 4.51 µM
- GI50 (CCRF-CEM leukemia): 2.13 µM
- TGI (CCRF-CEM leukemia): 9.88 µM
- GI50 (SF-295 CNS): 2.26 µM
- TGI (SF-295 CNS): 6.51 µM
- GI50 (TK-10 renal): 2.91 µM
- TGI (TK-10 renal): 6.95 µM
- GI50 (DU-145 prostate): 4.11 µM
- TGI (DU-145 prostate): 32.6 µM
- GI50 (HCC-2998 colon): 2.13 µM
- TGI (HCC-2998 colon): 4.62 µM
- GI50 (MCF7 breast): 1.76 µM
- TGI (MCF7 breast): 4.44 µM
- GI50 (OVCAR-4 ovarian): 3.53 µM
- TGI (OVCAR-4 ovarian): 16.3 µM
- GI50 (SW-620 colon): 1.77 µM
- TGI (SW-620 colon): 3.8 µM
- GI50 (IGROV1 ovarian): 4.41 µM
- TGI (IGROV1 ovarian): 17.6 µM
- GI50 (NCI-H460 lung): 1.78 µM
- TGI (NCI-H460 lung): 3.41 µM
- GI50 (SK-MEL-5 melanoma): 3.07 µM
- TGI (SK-MEL-5 melanoma): 22 µM
- GI50 (BT-549 breast): 1.89 µM
- TGI (BT-549 breast): 3.91 µM
- GI50 (NCI/ADR-RES ovarian): 2.56 µM
- TGI (NCI/ADR-RES ovarian): 11.2 µM
- GI50 (OVCAR-8 ovarian): 3.22 µM
- TGI (OVCAR-8 ovarian): 11.8 µM
- GI50 (SNB-75 CNS): 1.56 µM
- TGI (SNB-75 CNS): 3.56 µM
- GI50 (ACHN renal): 3.01 µM
- TGI (ACHN renal): 9.86 µM
- GI50 (KM12 colon): 2.58 µM
- TGI (KM12 colon): 7.3 µM
- GI50 (M14 melanoma): 2 µM
- TGI (M14 melanoma): 4.15 µM
- GI50 (HOP-92 NSCLC): 1.5 µM
- TGI (HOP-92 NSCLC): 6.62 µM
- GI50 (A549 NSCLC): 4.37 µM
- TGI (A549 NSCLC): 19.3 µM
- GI50 (NCI-H522 lung): 1.81 µM
- TGI (NCI-H522 lung): 4.14 µM
- GI50 (HCT-116 colon): 1.82 µM
- TGI (HCT-116 colon): 3.37 µM
- GI50 (A498 renal): 4.42 µM
- TGI (A498 renal): 19.2 µM
- GI50 (SF-539 CNS): 1.86 µM
- TGI (SF-539 CNS): 3.37 µM
- GI50 (NCI-H226 lung): 16.4 µM
- TGI (NCI-H226 lung): 33.1 µM

SMILES: O=C(Nc1ccccc1C(=O)NCc1ccccc1)/C(=C/c1ccccc1)NC(=O)c1ccccc1
- TGI (HT29 colon): > 100 µM
- TGI (T-47D breast): > 100 µM
- TGI (NCI-H23 lung): > 100 µM
- TGI (SR leukemia): > 100 µM
- TGI (U251 CNS): > 100 µM
- TGI (PC-3 prostate): > 100 µM
- TGI (MDA-MB-435): > 100 µM
- TGI (SK-MEL-2 melanoma): > 100 µM
- TGI (SN12C renal): > 100 µM
- TGI (OVCAR-3 ovarian): > 100 µM
- TGI (K-562 leukemia): > 100 µM
- TGI (SK-OV-3 ovarian): > 100 µM
- TGI (OVCAR-5 ovarian): > 100 µM
- TGI (CAKI-1 renal): > 100 µM
- TGI (RPMI-8226 leukemia): > 100 µM
- TGI (RXF 393 renal): > 100 µM
- TGI (SNB-19 CNS): > 100 µM
- TGI (UACC-62 melanoma): > 100 µM
- TGI (COLO 205 colon): > 100 µM
- TGI (786-0 renal): > 100 µM
- TGI (MDA-MB-231 breast): > 100 µM
- TGI (HCT-15 colon): > 100 µM
- TGI (UO-31 renal): > 100 µM
- TGI (HS 578T breast): > 100 µM
- TGI (SF-268 CNS): > 100 µM
- TGI (LOX IMVI melanoma): > 100 µM
- TGI (MOLT-4 leukemia): > 100 µM
- TGI (EKVX NSCLC): > 100 µM
- TGI (HOP-62 NSCLC): > 100 µM
- TGI (HL-60(TB) leukemia): > 100 µM
- TGI (UACC-257 melanoma): > 100 µM
- TGI (SK-MEL-28 melanoma): > 100 µM
- TGI (CCRF-CEM leukemia): > 100 µM
- TGI (SF-295 CNS): > 100 µM
- TGI (TK-10 renal): > 100 µM
- TGI (DU-145 prostate): > 100 µM
- TGI (HCC-2998 colon): > 100 µM
- TGI (MCF7 breast): > 100 µM
- TGI (OVCAR-4 ovarian): > 100 µM
- TGI (SW-620 colon): > 100 µM
- TGI (IGROV1 ovarian): > 100 µM
- TGI (SK-MEL-5 melanoma): > 100 µM
- TGI (BT-549 breast): > 100 µM
- TGI (NCI/ADR-RES ovarian): > 100 µM
- TGI (OVCAR-8 ovarian): > 100 µM
- TGI (SNB-75 CNS): > 100 µM
- TGI (ACHN renal): > 100 µM
- TGI (KM12 colon): > 100 µM
- TGI (M14 melanoma): > 100 µM
- TGI (HOP-92 NSCLC): > 100 µM
- TGI (A549 NSCLC): > 100 µM
- TGI (NCI-H522 lung): > 100 µM
- TGI (HCT-116 colon): > 100 µM
- TGI (A498 renal): > 100 µM
- TGI (SF-539 CNS): > 100 µM
- TGI (NCI-H226 lung): > 100 µM
